Experimental data: US9289464B2, “Method for diagnosing and treating NIS-expressing carcinomas and metastases” (priority 2002, dated 2016)

Key:
[1] = system: breast cancer cell line MCF-7; test: Iodide uptake assay (Na125I) in MCF-7 cells; assay type: cell-based, human
Procedure: (§1) All the cell lines used herein were purchased from the Deutschen Sammlung von Mikroorganismen und Zelikulturen (DSMZ; Brunswick, Germany, DSMZ No.: MCF-7 (ACC 115)). MCF-7 cells were cultured in RPMI 1640 medium with 10% FCS (fetal calf serum) and addition of 1× nonessential amino acids, 0.01 mg/ml bovine insulin and 5% penicillin/streptomycin. The HeLa cells were cultured in RPMI 1640 medium. All the reagents for the cell culture were, unless indicated otherwise, purchased from Invitrogen, Karlsruhe, Germany. Cells were cultured in plates with 24 wells (24 Well Plates) for 24 h. The cells were then washed and subsequently the substances to be tested (ciglitazone, trans-retinoic acid with or without KClO4) were added in fresh medium. […] After the incubation, the cells were washed twice with ice-cold RPMI 1640 and lysed in 2% SDS-PAGE sample buffer (0.0625 M Tris-HCl, pH 6.8) with 1 U/μl Benzonase (Merck KgaA, Darmstadt, Germany). The ^125I uptake was measured in a gamma counter. An aliquot of each sample was employed to determine the protein concentration using the DC protein determination kit from Bio-Rad (Munich, Germany) in order thus to achieve standardization with different numbers of cells.

HEK-293 cells = test: Iodide uptake assay in HEK-293 cells (analogous experiment); assay type: cell-based; conditions: results not shown
Procedure: Cells were cultured in plates with 24 wells (24 Well Plates) for 24 h. The cells were then washed and subsequently the substances to be tested (ciglitazone, trans-retinoic acid with or without KClO4) were added in fresh medium. […] After the incubation, the cells were washed twice with ice-cold RPMI 1640 and lysed in 2% SDS-PAGE sample buffer (0.0625 M Tris-HCl, pH 6.8) with 1 U/μl Benzonase (Merck KgaA, Darmstadt, Germany). The ^125I uptake was measured in a gamma counter. An aliquot of each sample was employed to determine the protein concentration using the DC protein determination kit from Bio-Rad (Munich, Germany) in order thus to achieve standardization with different numbers of cells.

[2] = system: non-small-cell lung cancer cell line A549; conditions: cited from earlier work
NIS mRNA = NIS mRNA concentration in treated cells; assay type: cell-based; conditions: cells treated with tRA
[3] = system: prostate cancer cell line LNCaP; conditions: cited from earlier work
[4] = system: cervical carcinoma cell line HeLa; test: Iodide uptake assay (Na125I) in HeLa cells; assay type: cell-based; conditions: 1 μM tRA with or without 5 μM CIG, 48 h
Procedure: as §1

[5] = system: choriocarcinoma cell line JEG-3; conditions: cited from earlier work
[6] = system: non-small-cell lung cancer cell line H460; conditions: cited from earlier work
NIS = target: T1, NIS (Homo sapiens, UniProt Q92911); test: Blocking experiments: iodide uptake in presence of KClO4; assay type: cell-based; conditions: 30 mM KClO4; MCF-7 treated with tRA with or without CIG
T1 construct: NIS gene expression is increased synergistically by treatment of CIG in combination with retinoic acid in the breast cancer cell line MCF-7; endogenous in cells; host or cells: MCF-7 (DSMZ ACC 115)
T1 sequence (Q92911 1-643): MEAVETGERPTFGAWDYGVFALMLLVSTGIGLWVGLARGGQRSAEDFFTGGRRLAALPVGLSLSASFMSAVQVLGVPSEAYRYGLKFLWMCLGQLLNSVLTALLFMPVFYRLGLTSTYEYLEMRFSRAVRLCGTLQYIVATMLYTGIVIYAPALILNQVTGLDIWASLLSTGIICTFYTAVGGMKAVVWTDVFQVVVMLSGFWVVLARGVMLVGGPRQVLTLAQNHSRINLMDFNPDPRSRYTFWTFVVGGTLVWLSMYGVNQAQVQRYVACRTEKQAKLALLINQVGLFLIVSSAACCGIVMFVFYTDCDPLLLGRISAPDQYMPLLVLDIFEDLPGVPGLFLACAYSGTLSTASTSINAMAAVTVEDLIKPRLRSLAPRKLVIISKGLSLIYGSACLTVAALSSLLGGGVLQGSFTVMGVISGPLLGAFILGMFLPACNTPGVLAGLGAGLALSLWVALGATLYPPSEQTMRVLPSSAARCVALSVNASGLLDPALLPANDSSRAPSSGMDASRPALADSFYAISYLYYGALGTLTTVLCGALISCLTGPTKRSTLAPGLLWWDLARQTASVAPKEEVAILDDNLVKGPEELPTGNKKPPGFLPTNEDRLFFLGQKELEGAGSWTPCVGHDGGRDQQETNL
Procedure: Cells were cultured in plates with 24 wells (24 Well Plates) for 24 h. The cells were then washed and subsequently the substances to be tested (ciglitazone, trans-retinoic acid with or without KClO4) were added in fresh medium. For the iodide uptake, the cells were first washed twice in prewarmed RPMI 1640 medium without FCS, and then incubated in 1 ml of RPMI 1640 without FCS which comprised 0.1 μCi/ml Na^125I (specific activity: 10 mCi/mmol, Amersham Biosciences, Freiburg, Germany) and 10 μM NaI/well for 1 h.
After the incubation, the cells were washed twice with ice-cold RPMI 1640 and lysed in 2% SDS-PAGE sample buffer (0.0625 M Tris-HCl, pH 6.8) with 1 U/μl Benzonase (Merck KgaA, Darmstadt, Germany). The ^125I uptake was measured in a gamma counter. An aliquot of each sample was employed to determine the protein concentration using the DC protein determination kit from Bio-Rad (Munich, Germany) in order thus to achieve standardization with different numbers of cells.
In order to test the specificity of NIS-mediated iodide uptake, the experiments described in the previous exemplary embodiment were also carried out in the presence of 30 mM KClO4, the strongest specific NIS inhibitor.

## CC1(COc2ccc(CC3SC(=O)NC3=O)cc2)CCCCC1 (stereo not shown) [CIG, ciglitazone]
[1]; 1 μM tRA and/or 5 μM CIG
  effect on iodide uptake (in words): no effect

## CC1=C(/C=C/C(C)=C/C=C/C(C)=C/C(=O)O)C(C)(C)CCC1 [tRA, trans-retinoic acid]
HEK-293 cells
  induction of iodide uptake (in words): same results
[2]
  induction of iodide uptake: does not induce iodide uptake
NIS mRNA
  concentration of NIS mRNA: distinctly increased
[3]
  induction of iodide uptake: does not induce iodide uptake
[4]
  induction of iodide uptake (in words): no induction of iodide uptake
[1]; 1 μM tRA
  time at which maximum iodide uptake was reached: 48 h
[5]
  induction of iodide uptake: does not induce iodide uptake
[6]
  induction of iodide uptake: does not induce iodide uptake

## [K+].[O-][Cl+3]([O-])([O-])[O-] [KClO4]
NIS
  effect on iodide uptake of breast cancer cells (NIS blocking): inhibited
